System: Phi6 bacteriophage (surrogate for Coronavirus and Ebola)
Format: cell-based

## [O][Cl+][O-] [ClO2, chlorine dioxide]
  log reduction of virions: 6 log
  time in which 6-log reduction was achieved: less than 90 minutes
  virions recovered from the coupons treated with ClO2 gas: no virions were recovered
